In PMC6511041 (Proceedings of the National Academy of Sciences of the …, 2019):

What was measured:
[1] = molecular target: T1, Olfr1062 (Mus musculus, UniProt Q7TR71); experiment: Dual-Glo firefly/Renilla luciferase reporter, dose-response; format: cell-based; settings: odorant up to 0.3 mM; competitive-binding model fit, single odorant
T1 sequence (Q7TR71 1-315): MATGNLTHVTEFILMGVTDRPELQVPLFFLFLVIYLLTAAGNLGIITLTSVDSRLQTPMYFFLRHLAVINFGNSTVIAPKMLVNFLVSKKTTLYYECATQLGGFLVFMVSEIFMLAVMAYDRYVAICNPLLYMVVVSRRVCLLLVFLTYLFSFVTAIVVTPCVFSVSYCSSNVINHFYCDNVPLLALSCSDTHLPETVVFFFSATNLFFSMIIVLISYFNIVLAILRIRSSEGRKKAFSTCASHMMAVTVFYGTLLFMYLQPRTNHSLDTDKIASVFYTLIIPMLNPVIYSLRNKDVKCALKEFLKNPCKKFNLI

[2] = molecular target: T2, OR5P3 (Homo sapiens, UniProt Q8WZ94); experiment: as above; format: cell-based; settings: odorant up to 0.3 mM; competitive-binding model fit, single odorant
T2 sequence (Q8WZ94 1-311): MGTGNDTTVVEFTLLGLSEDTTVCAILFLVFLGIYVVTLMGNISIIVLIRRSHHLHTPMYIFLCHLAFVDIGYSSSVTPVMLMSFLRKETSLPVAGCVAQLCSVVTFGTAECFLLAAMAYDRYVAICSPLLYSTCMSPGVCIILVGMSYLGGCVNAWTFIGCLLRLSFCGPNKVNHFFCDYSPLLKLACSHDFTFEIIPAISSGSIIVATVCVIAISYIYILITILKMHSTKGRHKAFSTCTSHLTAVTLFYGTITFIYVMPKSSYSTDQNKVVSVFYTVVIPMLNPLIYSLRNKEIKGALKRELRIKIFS

| Compound | EC50 [1] | EC50 [2] |
| --- | --- | --- |
| CC(=O)c1ccccc1 [acetophenone] | Olfr1062, synergy between all three pairs | OR5P3, synergy between coumarin and acetophenone |
| O=c1ccc2ccccc2o1 [coumarin] | Olfr1062, synergy between all three pairs | OR5P3, synergy between coumarin and acetophenone |
| C=CCc1ccc(O)c(OC)c1 [eugenol] | Olfr1062, synergy between all three pairs |  |
